These molecules were tested against T1, immobilized human serum albumin (Homo sapiens, UniProt P02768) (assay: Albumin binding: affinity chromatography on columns with immobilized human serum albumin (net retention time)). Conditions: isolated binders; HSA column 25° C., PBS pH 7.4/isopropanol gradient.
T1 construct: purchased Chiralpak (Chiraltech) 34712
Experimental: In order to identify suitable binder molecules, which when bound to a peptide, such as an insulin, are able to improve the half-life in plasma and to prolong the profile of action, a system was established based on affinity chromatography with serum albumin columns, i.e. columns with immobilized serum albumin.
The net retention time of the binders (samples) was calculated according to the following formula: Net retention time=RetTimeSample−RetTimet0 marker
• Instrument: Waters Alliance 2795/Waters PDA 2996 or Waters H-Class UPLC equipped with a Waters Acquity photodiode-array detector • Software: Waters Empower 3 • Column: […]® HSA 50×4 mm; 5 μm Particle size • Chiraltech Order Numbers: HSA: 34712 • Eluent A: Phosphate Buffer saline (PBS) at pH=7.4 • Gibco PBS pH7.4 (10×) Phosphate Buffered Saline 500 ml; • Order Number: 70011-036 (500 ml) • Eluent B: Isopropanol • Fisher Order Number: A461-1 (10 • Gradient:
• Column temperature: 25° C. • Flow rate: 1.0 ml/min • Detection: λ=220 nm • Injection volume: 20 μL • Sample Conc.: 1 mg/ml insulin solution in PBS for insulin samples • 5 μL of 10 mM DMSO stock solution (DMSO evaporated and re-dissolved in 200 μL i-propanol/water 1:1 v/v) for isolated binder samples (250 μM, 0.2 mg/ml at 800 Da MolWeight) • t0 marker Sodium Nitrate (NaNO3) solution in water, 0.05 mg/ml • Diluted from aqueous 1 mg/ml stock solution (Fluka Order Number: 74246-100ML) • Reported Value Net retention time of sample: RetTime Sample−RetTime t0 marker
Affinity chromatography was carried out i) for insulin conjugates according to Examples 3.3 and 3.4 on a Waters Alliance Separation Module 2695 equipped with a Waters photodiode-array detector 2996 or Waters H-Class UPLC equipped with a Waters Acquity photodiode-array detector and ii) for isolated binders according to Example 2.11 on a Waters Alliance Separation Module 2795 equipped with a Waters photodiode-array detector 2996 or Waters H-Class UPLC equipped with a Waters Acquity photodiode-array detector.
Columns with immobilized human serum albumin (50×4 mm; 5 μm particle size) were purchased from Chiralpak and used for separations.
The columns with immobilized serum albumin were kept at 25° C. during the LC run, UV detection was carried out at 220 nm and injection volume was 20 μL.
The net retention time of the samples was reported according to Net retention time=RetTime Sample−RetTime t0 marker

T1 sequence (P02768 25-609): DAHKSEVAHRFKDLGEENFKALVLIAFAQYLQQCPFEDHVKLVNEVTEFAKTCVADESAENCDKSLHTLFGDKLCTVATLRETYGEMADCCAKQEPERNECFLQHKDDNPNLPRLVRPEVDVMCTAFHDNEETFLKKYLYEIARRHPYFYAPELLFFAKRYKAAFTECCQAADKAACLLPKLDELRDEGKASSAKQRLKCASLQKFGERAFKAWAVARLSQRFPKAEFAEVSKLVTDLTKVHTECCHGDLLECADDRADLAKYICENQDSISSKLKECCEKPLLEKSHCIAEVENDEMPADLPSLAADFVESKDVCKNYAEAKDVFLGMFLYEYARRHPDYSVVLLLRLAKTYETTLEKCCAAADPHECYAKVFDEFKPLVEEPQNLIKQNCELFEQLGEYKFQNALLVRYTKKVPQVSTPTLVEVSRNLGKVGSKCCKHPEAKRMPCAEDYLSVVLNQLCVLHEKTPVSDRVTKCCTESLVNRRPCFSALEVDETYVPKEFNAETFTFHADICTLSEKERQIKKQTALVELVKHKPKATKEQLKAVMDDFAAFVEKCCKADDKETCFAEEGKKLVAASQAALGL

| SMILES | NRT [min] (net retention time on columns with immobilized human serum albumin) |
| --- | --- |
| O=C(O)CCCCCCCCCc1ccc(OCc2ccc(S(=O)(=O)Nc3ncc(C(=O)NCCOCCOCC(=O)NCCOCCOCC(=O)O)cn3)cc2)cc1 [Binder 1] | 16.76 |
| O=C(O)CCCCCCCCCCCCCCOc1ccc(S(=O)(=O)Nc2ncc(C(=O)CCCCCCC(=O)NCCOCCOCC(=O)NCCOCCOCC(=O)O)cn2)cc1 [Binder 6] | 14.31 |
| O=C(O)CCCCCCCCCCCCCc1cc(Oc2ccc(S(=O)(=O)Nc3ncc(C(=O)NCCOCCOCC(=O)NCCOCCOCC(=O)O)cn3)cc2)ccc1F [Binder 8] | 15.29 |
| O=C(O)CCCCCCCCCCCCCCOc1ccc(S(=O)(=O)Nc2ccc(C(=O)NCCOCCOCC(=O)NCCOCCOCC(=O)O)cn2)cc1 [Binder 9] | 14.01 |
| O=C(O)CCCCCCCCCCCCCc1cccc(S(=O)(=O)Nc2ccc(C(=O)NCCOCCOCC(=O)NCCOCCOCC(=O)O)cn2)c1 [Binder 21] | 16.26 |
| O=C(O)CCCCCCCCCCCc1ccc(Oc2ccc(S(=O)(=O)Nc3ccc(C(=O)NCCOCCOCC(=O)NCCOCCOCC(=O)O)cn3)cc2)cc1 [Binder 27] | 15.01 |
| O=C(O)CCCCCCCCCCCCCc1cccc(S(=O)(=O)Nc2ncc(C(=O)NCCOCCOCC(=O)NCCOCCOCC(=O)O)cn2)c1 [Binder 29] | 15.66 |
| O=C(O)CCCCCCCCCCCCCCCCCc1cccc(S(=O)(=O)Nc2ncc(C(=O)NCCOCCOCC(=O)NCCOCCOCC(=O)O)cn2)c1 [Binder 41] | 14.98 |
| O=C(O)CCCCCCCCCCCCCc1ccc(Oc2ccc(S(=O)(=O)Nc3ccc(C(=O)NCCOCCOCC(=O)NCCOCCOCC(=O)O)cn3)cc2)cc1 [Binder 42] | 14.35 |
| O=C(O)CCCCCCCc1ccc(CCOc2ccc(S(=O)(=O)Nc3ccc(C(=O)NCCOCCOCC(=O)NCCOCCOCC(=O)O)cn3)cc2)cc1 [Binder 43] | 11.36 |
| O=C(O)CCCCCCCCCCCCCc1ccc(OCc2ccc(S(=O)(=O)Nc3ccc(C(=O)NCCOCCOCC(=O)NCCOCCOCC(=O)O)cn3)cc2)cc1 [Binder 44] | 15.04 |
| O=C(O)CCCCCCCc1ccc(CCOc2ccc(S(=O)(=O)Nc3ccc(C(=O)NCCOCCOCC(=O)NCCOCCOCC(=O)O)cn3)cc2)cc1 [Binder 46] | 14.48 |
| O=C(O)CCCCCCCCCc1ccc(Oc2ccc(S(=O)(=O)Nc3ncc(C(=O)NCCOCCOCC(=O)NCCOCCOCC(=O)O)cn3)cc2)cc1F [Binder 52] | 14.56 |
| O=C(O)CCCCCCCCCCCCCCCCCc1cccc(S(=O)(=O)Nc2ncc(C(=O)NCCOCCOCC(=O)NCCOCCOCC(=O)O)cn2)c1 [Binder 55] | 15.01 |
| O=C(O)CCCCCCCc1cc(Oc2ccc(S(=O)(=O)Nc3ncc(C(=O)NCCOCCOCC(=O)NCCOCCOCC(=O)O)cn3)cc2)ccc1F [Binder 63] | 13.42 |
| O=C(O)CCCCCCCCCCCc1cccc(S(=O)(=O)Nc2ccc(C(=O)NCCOCCOCC(=O)NCCOCCOCC(=O)O)cn2)c1 [Binder 65] | 12.21 |
| O=C(O)CCCCCCCCCc1ccc(S(=O)(=O)Nc2ncc(C(=O)NCCOCCOCC(=O)NCCOCCOCC(=O)O)cn2)cc1 [Binder 66] | 9.87 |
| O=C(O)CCCCCCCCCc1ccc(S(=O)(=O)Nc2ccc(C(=O)NCCOCCOCC(=O)NCCOCCOCC(=O)O)cn2)cc1 [Binder 67] | 10.99 |
| O=C(O)CCCCCCCCCCCCCCCOc1cc(Cl)c(S(=O)(=O)Nc2ncc(C(=O)NCCOCCOCC(=O)NCCOCCOCC(=O)O)cn2)cc1Cl [Binder 72] | 13.96 |

Next, values leading:

| NRT [min] (net retention time on columns with immobilized human serum albumin) | SMILES |
| --- | --- |
| 14.32 | O=C(O)CCCCCCCCCCCCCCOc1ccc(S(=O)(=O)Nc2ncc(C(=O)NCCOCCOCC(=O)NCCOCCOCC(=O)O)cn2)cc1 [Binder 5] |
| 13.8 | O=C(O)CCCCCCCCCCCCCCCOc1ccc(S(=O)(=O)Nc2ncc(C(=O)NCCOCCOCC(=O)NCCOCCOCC(=O)O)c(C(F)(F)F)n2)cc1 [Binder 45] |
| 13.73 | Cc1nc(NS(=O)(=O)c2ccc(OCCCCCCCCCCCCCCCC(=O)O)cc2)ncc1C(=O)NCCOCCOCC(=O)NCCOCCOCC(=O)O [Binder 47] |
| 13.74 | O=C(O)CCCCCCCCCCCCCCCOc1ccc(S(=O)(=O)Nc2ncc(C(=O)NCCOCCOCC(=O)NCCOCCOCC(=O)O)cn2)cc1Cl [Binder 50] |
| 13.59 | O=C(O)CCCCCCCCCCCCCCCOc1ccc(S(=O)(=O)Nc2ccc(C(=O)NCCOCCOCC(=O)NCCOCCOCC(=O)O)cn2)cc1Cl [Binder 51] |
| 12.29 | O=C(O)CCCCCCCCCCCc1ccc(S(=O)(=O)Nc2ncc(C(=O)NCCOCCOCC(=O)NCCOCCOCC(=O)O)cn2)cc1 [Binder 53] |
| 15.19 | O=C(O)CCCCCCCCCCCCCCCc1ccc(S(=O)(=O)Nc2ncc(C(=O)NCCOCCOCC(=O)NCCOCCOCC(=O)O)cn2)cc1 [Binder 54] |
| 15.47 | O=C(O)CCCCCCCCCCCCCCCc1ccc(S(=O)(=O)Nc2ccc(C(=O)NCCOCCOCC(=O)NCCOCCOCC(=O)O)cn2)cc1 [Binder 59] |
| 14.78 | O=C(O)CCCCCCCCCCCCCc1ccc(OCc2ccc(S(=O)(=O)Nc3ncc(C(=O)NCCOCCOCC(=O)NCCOCCOCC(=O)O)cn3)cc2)cc1 [Binder 64] |
| 14.74 | O=C(O)CCCCCCCCCCCCCCCOc1cccc(S(=O)(=O)Nc2ncc(C(=O)NCCOCCOCC(=O)NCCOCCOCC(=O)O)cn2)c1 [Binder 68] |
| 14.24 | O=C(O)CCCCCCCCCCCCCCCCCOc1ccc(S(=O)(=O)Nc2ncc(C(=O)NCCOCCOCC(=O)NCCOCCOCC(=O)O)cn2)cc1 [Binder 69] |
| 14.26 | O=C(O)CCCCCCCCCCCCCCCCCOc1ccc(S(=O)(=O)Nc2ccc(C(=O)NCCOCCOCC(=O)NCCOCCOCC(=O)O)cn2)cc1 [Binder 70] |
| 14.42 | O=C(O)CCCCCCCCCCCCCCCCCCCOc1ccc(S(=O)(=O)Nc2ccc(C(=O)NCCOCCOCC(=O)NCCOCCOCC(=O)O)cn2)cc1 [Binder 71] |

These molecules were tested against insulin receptor isoform B (IR-B) (Homo sapiens, UniProt P06213) (assay: Insulin receptor autophosphorylation assay (In-Cell Western, CHO cells, Example 8B)). Conditions: relative to human insulin.
Assay type: cell-based
Parameters: expressed in transfected cells; host or cells: CHO cells

insulin receptor isoform B (IR-B), sequence (P06213 28-758 limits assumed): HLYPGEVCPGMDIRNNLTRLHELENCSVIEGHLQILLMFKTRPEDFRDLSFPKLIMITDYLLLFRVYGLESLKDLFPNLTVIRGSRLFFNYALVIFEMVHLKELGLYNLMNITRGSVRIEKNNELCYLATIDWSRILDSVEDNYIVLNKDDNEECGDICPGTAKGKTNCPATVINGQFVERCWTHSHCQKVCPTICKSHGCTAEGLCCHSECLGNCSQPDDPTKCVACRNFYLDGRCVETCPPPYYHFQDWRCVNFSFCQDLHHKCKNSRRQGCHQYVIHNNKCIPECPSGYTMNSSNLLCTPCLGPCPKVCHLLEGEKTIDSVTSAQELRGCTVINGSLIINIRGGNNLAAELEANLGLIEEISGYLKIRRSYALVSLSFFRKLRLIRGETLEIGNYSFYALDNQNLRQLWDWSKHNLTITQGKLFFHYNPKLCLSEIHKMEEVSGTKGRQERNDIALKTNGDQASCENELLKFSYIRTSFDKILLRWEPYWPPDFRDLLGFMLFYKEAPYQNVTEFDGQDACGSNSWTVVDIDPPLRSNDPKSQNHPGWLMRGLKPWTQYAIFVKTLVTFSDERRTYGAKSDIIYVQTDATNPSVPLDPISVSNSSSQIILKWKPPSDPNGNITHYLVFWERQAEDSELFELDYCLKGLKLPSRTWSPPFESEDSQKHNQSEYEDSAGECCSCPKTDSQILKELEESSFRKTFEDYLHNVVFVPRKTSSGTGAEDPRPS
insulin receptor isoform B (IR-B), sequence (P06213 763-1382 limits assumed): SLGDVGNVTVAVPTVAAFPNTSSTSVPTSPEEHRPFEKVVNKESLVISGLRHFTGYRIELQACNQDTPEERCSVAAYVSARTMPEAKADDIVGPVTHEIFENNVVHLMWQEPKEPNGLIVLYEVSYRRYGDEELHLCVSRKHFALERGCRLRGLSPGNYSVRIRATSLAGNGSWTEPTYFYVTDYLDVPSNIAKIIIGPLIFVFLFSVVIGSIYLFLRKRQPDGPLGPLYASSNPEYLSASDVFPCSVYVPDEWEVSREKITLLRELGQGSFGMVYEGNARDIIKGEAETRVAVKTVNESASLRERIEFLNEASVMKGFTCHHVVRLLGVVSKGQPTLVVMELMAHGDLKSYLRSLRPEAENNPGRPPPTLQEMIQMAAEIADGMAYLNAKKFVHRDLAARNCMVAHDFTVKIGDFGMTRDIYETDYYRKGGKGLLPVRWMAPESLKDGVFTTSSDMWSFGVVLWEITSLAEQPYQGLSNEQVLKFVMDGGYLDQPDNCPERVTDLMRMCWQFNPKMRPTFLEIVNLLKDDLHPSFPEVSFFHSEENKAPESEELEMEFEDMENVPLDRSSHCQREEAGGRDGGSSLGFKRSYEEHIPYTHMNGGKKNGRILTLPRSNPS

| SMILES | autophosphorylation activity |
| --- | --- |
| O=C(O)CCCCCCCCCCCCCCOc1ccc(S(=O)(=O)Nc2ncc(C(=O)CCCCCCC(=O)NCCOCCOCC(=O)NCCOCCOCC(=O)O)cn2)cc1 [Binder 6] | 0.32 |
| O=C(O)CCCCCCCCCCCCCc1cc(Oc2ccc(S(=O)(=O)Nc3ncc(C(=O)NCCOCCOCC(=O)NCCOCCOCC(=O)O)cn3)cc2)ccc1F [Binder 8] | 0.17 |
| O=C(O)CCCCCCCCCCCc1ccc(Oc2ccc(S(=O)(=O)Nc3ccc(C(=O)NCCOCCOCC(=O)NCCOCCOCC(=O)O)cn3)cc2)cc1 [Binder 27] | 0.11 |
| O=C(O)CCCCCCCCCCCCCc1cccc(S(=O)(=O)Nc2ncc(C(=O)NCCOCCOCC(=O)NCCOCCOCC(=O)O)cn2)c1 [Binder 29] | 0.01 |
